pIC50: −log10 of the molar value. Like-named read-outs stand apart in the source and are kept apart here. Positions of bridges follow the written chain, without caps; N, C: chain ends. Non-standard residues stand in square brackets, D forms with d. Residues, ends and D or L forms follow the SMILES beside them. *: point of attachment. X1 = CC[C@@H](C)C1NC(=O)CN(CC(=O)*)C1=O; NMeI = CC[C@H](C)[C@H](NC)C(=O)O; NMeD = CN[C@@H](CC(=O)O)C(=O)O; NMeL = CN[C@@H](CC(C)C)C(=O)O; Nleu = CC(C)CNCC(=O)O; Aoc = NCCCCCCCC(=O)O; GABA = NCCCC(=O)O
Legend:
AgrC-IV [1] = biological target: T1, AgrC-IV (Staphylococcus aureus, UniProt Q309Z2); format: cell-based, S. aureus; conditions: for AgrC-IV activity: gfp/fluorescence assay; for pIC50: read-out: AgrC-IV IC50; for AgrC-IV % Activation: fluorescence of treated vs non-treated wild-type bacteria, lower % activation = more potent inhibition
T1 sequence (Q309Z2 1-430): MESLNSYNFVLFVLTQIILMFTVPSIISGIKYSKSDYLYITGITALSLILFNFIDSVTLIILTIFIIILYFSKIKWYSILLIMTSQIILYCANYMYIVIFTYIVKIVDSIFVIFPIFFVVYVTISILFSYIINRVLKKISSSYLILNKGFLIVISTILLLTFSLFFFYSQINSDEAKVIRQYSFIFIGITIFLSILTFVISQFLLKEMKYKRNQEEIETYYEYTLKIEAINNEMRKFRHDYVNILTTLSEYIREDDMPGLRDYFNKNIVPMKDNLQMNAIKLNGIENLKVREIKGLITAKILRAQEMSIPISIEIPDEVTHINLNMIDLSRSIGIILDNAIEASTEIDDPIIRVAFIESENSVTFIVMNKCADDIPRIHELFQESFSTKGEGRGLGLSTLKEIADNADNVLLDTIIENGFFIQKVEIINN

AgrC-III = AgrC-III (Staphylococcus aureus, UniProt O33590); format: cell-based, S. aureus; conditions: for pIC50: read-out: AgrC-III IC50, fluorescence reporter strain; for AgrC-III activity: gfp/fluorescence assay; for AgrC-III % Activation: fluorescence of treated vs non-treated wild-type bacteria, lower % activation = more potent inhibition
Chain of AgrC-III (O33590 1-425): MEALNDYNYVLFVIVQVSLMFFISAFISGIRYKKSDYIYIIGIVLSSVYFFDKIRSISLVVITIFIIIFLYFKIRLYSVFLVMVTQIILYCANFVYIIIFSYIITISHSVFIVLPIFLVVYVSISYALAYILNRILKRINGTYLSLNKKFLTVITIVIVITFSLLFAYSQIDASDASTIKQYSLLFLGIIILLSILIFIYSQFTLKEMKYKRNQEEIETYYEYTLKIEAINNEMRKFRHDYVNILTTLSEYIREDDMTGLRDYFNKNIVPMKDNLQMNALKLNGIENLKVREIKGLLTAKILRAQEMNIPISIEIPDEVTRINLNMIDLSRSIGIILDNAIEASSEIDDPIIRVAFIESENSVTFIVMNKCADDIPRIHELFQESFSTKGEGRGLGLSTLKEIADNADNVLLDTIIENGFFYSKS

AgrC-I [2] = biological target: T2, AgrC-I (Staphylococcus aureus, UniProt O07911); format: cell-based, S. aureus; conditions: for pIC50: read-out: AgrC-I IC50, fluorescence reporter strain; for AgrC-I % Activation: fluorescence of treated vs non-treated wild-type bacteria, lower % activation = more potent inhibition
T2 sequence (O07911 1-430): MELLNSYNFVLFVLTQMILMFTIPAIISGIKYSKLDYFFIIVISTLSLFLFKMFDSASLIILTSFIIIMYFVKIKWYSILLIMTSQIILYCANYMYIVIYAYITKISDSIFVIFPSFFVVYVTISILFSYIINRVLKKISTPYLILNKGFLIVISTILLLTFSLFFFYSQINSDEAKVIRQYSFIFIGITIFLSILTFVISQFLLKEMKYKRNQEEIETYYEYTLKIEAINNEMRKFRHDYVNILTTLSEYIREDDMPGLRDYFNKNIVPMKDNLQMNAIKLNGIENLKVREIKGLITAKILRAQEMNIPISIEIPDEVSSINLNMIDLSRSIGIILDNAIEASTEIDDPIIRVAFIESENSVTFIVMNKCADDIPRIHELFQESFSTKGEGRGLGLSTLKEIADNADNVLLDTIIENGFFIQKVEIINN

AgrC-II [3] = biological target: T3, AgrC-II (Staphylococcus aureus, UniProt O33587); format: cell-based, S. aureus; conditions: for pIC50: read-out: AgrC-II IC50, fluorescence reporter strain; for AgrC-II % Activation: fluorescence of treated vs non-treated wild-type bacteria, lower % activation = more potent inhibition
T3 sequence (O33587 1-437): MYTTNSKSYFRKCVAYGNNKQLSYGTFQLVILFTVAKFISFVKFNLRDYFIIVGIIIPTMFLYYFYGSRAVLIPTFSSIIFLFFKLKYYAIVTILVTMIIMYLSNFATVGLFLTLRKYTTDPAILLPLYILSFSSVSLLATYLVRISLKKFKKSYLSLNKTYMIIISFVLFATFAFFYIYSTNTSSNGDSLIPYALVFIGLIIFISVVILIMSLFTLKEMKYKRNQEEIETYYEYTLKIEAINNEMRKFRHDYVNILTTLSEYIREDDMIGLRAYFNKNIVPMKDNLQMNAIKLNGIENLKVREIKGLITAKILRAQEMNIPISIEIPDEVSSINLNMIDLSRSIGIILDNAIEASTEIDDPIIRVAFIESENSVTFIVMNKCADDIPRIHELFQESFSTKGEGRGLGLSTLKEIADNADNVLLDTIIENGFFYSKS

AgrC-II [4] = biological target: T3, AgrC-II; assay: Hemolysis assay, wild-type group-II strain RN6923, rabbit red blood cells; conditions: read-out: AgrC-II IC50; hemolysis assay; 200 fM − 10 μM
AgrC-IV [5] = biological target: T1, AgrC-IV; assay: Hemolysis assay, wild-type group-IV strain RN4850, rabbit red blood cells; conditions: read-out: AgrC-IV IC50; hemolysis assay; 200 fM − 10 μM
AgrC-I [6] = biological target: T2, AgrC-I; assay: Hemolysis assay, wild-type group-I strain RN6390B, rabbit red blood cells; conditions: read-out: AgrC-I IC50; hemolysis assay; 200 fM − 10 μM
[7] = fluorescence reporter strain, AIPs tested over 200 fM − 10 μM or (b1) 2.5 pM − 10 μM, triplicate
[8] = AIPs tested over 200 fM − 10 μM or (b1) 2.5 pM − 10 μM, triplicate
[9] = second-generation analogues, 200 fM − 10 μM
[10] = second-generation analogues, fluorescence reporter strain, 200 fM − 10 μM

| Structure (SMILES) | pIC50 (AgrC-III; [8]) | pIC50 (AgrC-I [2]; [8]) | pIC50 (AgrC-IV [1]; [7]) | pIC50 (AgrC-II [3]; [9]) | pIC50 (AgrC-I [2]; [9]) | pIC50 (AgrC-IV [1]; [10]) | AgrC-III activity (AgrC-III) | pIC50 (AgrC-III; [9]) | pIC50 (AgrC-II [3]; [8]) | further results |
| --- | --- | --- | --- | --- | --- | --- | --- | --- | --- | --- |
| CC[C@H](C)[C@H](N)C(=O)N[C@@H](CC(N)=O)C(=O)N[C@H]1CSC(=O)[C@H](CC(C)C)N(C)C(=O)[C@H](CC(C)C)NC(=O)[C@H](Cc2ccccc2)NC(=O)[C@H](CC(=O)O)NC1=O [AIP-III N-Me-L7, I-N-(C-D-F-L-NMeL)] (H-INCDFL[NMeL]; thioester 3-C) | < 6.00 |  |  |  |  |  |  |  |  | AgrC-IV IC50 (AgrC-IV [1]; [7]): _h |
| CC[C@H](C)[C@H](N)C(=O)N[C@@H](CC(N)=O)C(=O)N[C@H]1CSC(=O)[C@H](CC(C)C)NC(=O)[C@H](CC(C)C)N(C)C(=O)[C@H](Cc2ccccc2)NC(=O)[C@H](CC(=O)O)NC1=O [AIP-III N-Me-L6, I-N-(C-D-F-NMeL-L)] (H-INCDF[NMeL]L; thioester 3-C) | 6.79 | < 6.00 | 7.09 |  |  |  |  |  |  | AgrC-IV activity (AgrC-IV [1]): AgrC-IV selective inhibitor |
| CC[C@H](C)[C@H](NC(=O)[C@H](C)N)C(=O)N[C@@H](CC(N)=O)C(=O)N[C@H]1CSC(=O)[C@H](CC(C)C)NC(=O)[C@H](CC(C)C)NC(=O)[C@H](Cc2ccccc2)NC(=O)[C@H](CC(=O)O)NC1=O [A-AIP-III, A-I-N-(C-D-F-L-L)] (H-AINCDFLL; thioester 4-C) |  |  |  | 8.19 | 7.58 | 7.55 | partial agonist | 7.56 |  | AgrC-IV activity (AgrC-IV [1]): partial agonism |
| CC[C@H](C)[C@H](NC(C)=O)C(=O)N[C@@H](CC(N)=O)C(=O)N[C@H]1CSC(=O)[C@H](CC(C)C)NC(=O)[C@H](CC(C)C)NC(=O)[C@H](Cc2ccccc2)NC(=O)[C@H](CC(=O)O)NC1=O [Ac-AIP-III, Ac-I-N-(C-D-F-L-L)] (Ac-INCDFLL; thioester 3-C) |  |  |  | 7.35 | < 6.70 | < 6.70 | largely inactive | < 6.70 |  |  |
| CC[C@H](C)[C@H](N)C(=O)N[C@@H](CC(N)=O)C(=O)N[C@H]1CSC(=O)[C@H](CC(C)C)NC(=O)[C@H](CC(C)C)NC(=O)[C@H](C)NC(=O)[C@H](CC(=O)O)NC1=O [AIP-III F5A, I-N-(C-D-A-L-L)] (H-INCDALL; thioester 3-C) | < 6.70 | < 6.70 | 6.93 |  |  |  |  |  | < 6.70 | pIC50 (AgrC-II [4]): 7.35 |
| CC[C@H](C)[C@H](NC(=O)CN)C(=O)N[C@@H](CC(N)=O)C(=O)N[C@H]1CSC(=O)[C@H](CC(C)C)NC(=O)[C@H](CC(C)C)NC(=O)[C@H](Cc2ccccc2)NC(=O)[C@H](CC(=O)O)NC1=O [G-AIP-III, G-I-N-(C-D-F-L-L)] (H-GINCDFLL; thioester 4-C) |  |  |  | 7.86 | 7.52 | 6.98 | largely inactive | < 6.70 |  |  |
| CC[C@H](C)[C@H](N)C(=O)N[C@@H](CC(N)=O)C(=O)N[C@H]1CSC(=O)[C@H](CC(C)C)NC(=O)[C@H](CC(C)C)NC(=O)[C@H](Cc2ccccc2)NC(=O)CN(CC(=O)O)C1=O [AIP-III nD4, I-N-(C-nD-F-L-L)] |  | 6.79 | 7.27 |  |  |  |  |  | 7.55 |  |
| CC[C@H](C)[C@H](NC(=O)[C@@H](N)Cc1ccc(O)cc1)C(=O)N[C@@H](CC(N)=O)C(=O)N[C@H]1CSC(=O)[C@H](CC(C)C)NC(=O)[C@H](CC(C)C)NC(=O)[C@H](Cc2ccccc2)NC(=O)[C@H](CC(=O)O)NC1=O [Y-AIP-III, Y-I-N-(C-D-F-L-L)] (H-YINCDFLL; thioester 4-C) |  |  |  | 8.43 | 8.05 | 7.11 | moderate antagonist | 7.41 |  |  |
| CC[C@H](C)[C@H](N)C(=O)N[C@@H](C)C(=O)N[C@H]1CSC(=O)[C@H](CC(C)C)NC(=O)[C@H](CC(C)C)NC(=O)[C@H](Cc2ccccc2)NC(=O)[C@H](CC(=O)O)NC1=O [AIP-III N2A, I-A-(C-D-F-L-L)] (H-IACDFLL; thioester 3-C) |  | 8.44 | 8.45 |  |  |  | weak agonist |  | 9.14 | pIC50 (AgrC-IV [5]): 8.58; pIC50 (AgrC-I [6]): 8.99; pIC50 (AgrC-II [4]): 9.86 |
| CC(C)C[C@@H]1NC(=O)[C@H](Cc2ccccc2)NC(=O)[C@H](CC(=O)O)NC(=O)[C@@H](NC(=O)[C@H](C)NC(=O)[C@H](C)N)CSC(=O)[C@H](CC(C)C)NC1=O [AIP-III I1A/N2A, A-A-(C-D-F-L-L)] (H-AACDFLL; thioester 3-C) |  |  |  | 8.36 | 8.13 | 8.27 |  | 8.59 |  |  |
| CC[C@H](C)[C@H](N)C(=O)N[C@@H](CC(N)=O)C(=O)N[C@H]1CSC(=O)[C@H](CC(C)C)NC(=O)[C@H](CC(C)C)NC(=O)[C@H](Cc2ccccc2)NC(=O)[C@H](CC(=O)O)N(C)C1=O [AIP-III N-Me-D4, I-N-(C-NMeD-F-L-L)] (H-INC[NMeD]FLL; thioester 3-C) | 7.04 | 6.76 | 7.43 |  |  |  |  |  | 8.10 |  |
| CC[C@H](C)[C@H](NC)C(=O)N[C@@H](CC(N)=O)C(=O)N[C@H]1CSC(=O)[C@H](CC(C)C)NC(=O)[C@H](CC(C)C)NC(=O)[C@H](Cc2ccccc2)NC(=O)[C@H](CC(=O)O)NC1=O [AIP-III N-Me-I1, NMeI-N-(C-D-F-L-L)] (H-[NMeI]NCDFLL; thioester 3-C) | < 6.00 | 7.22 | 7.31 |  |  |  |  |  | 7.89 |  |
| CC[C@H](C)[C@H](N)C(=O)N[C@@H](CC(N)=O)C(=O)N[C@H]1CSC(=O)[C@H](CC(C)C)NC(=O)CN(CC(C)C)C(=O)[C@H](Cc2ccccc2)NC(=O)[C@H](CC(=O)O)NC1=O [AIP-III nL6, I-N-(C-D-F-nL-L)] (H-INCDF[Nleu]L; thioester 3-C) | < 6.00 |  | < 6.00 |  |  |  |  |  |  |  |
| CC[C@@H](C)C1NC(=O)CN(CC(=O)N[C@H]2CSC(=O)[C@H](CC(C)C)NC(=O)[C@H](CC(C)C)NC(=O)[C@H](Cc3ccccc3)NC(=O)[C@H](CC(=O)O)NC2=O)C1=O (stereo partly drawn) [AIP-III nN2 DKP, (I-nN)-(C-D-F-L-L)] (X1-CDFLL; thioester 1-C) | 7.60 | 6.90 | 7.07 |  |  |  | AgrC-III inhibitor |  | 8.37 |  |
| CC(=O)N[C@H]1CSC(=O)[C@H](Cc2ccccc2)NC(=O)[C@H](CC(C)C)NC(=O)CCCNC1=O [n3LF] (Ac-C[GABA]LF; thioester 1-C) |  |  |  |  |  |  | global inhibitor of all four AgrC receptors |  |  | AgrC-II % Activation (AgrC-II [3]): 28 ± 10%; AgrC-II activity described in text (AgrC-II [3]; gfp/fluorescence assay): global inhibitor of all four AgrC receptors; AgrC-I % Activation (AgrC-I [2]): 17 ± 7%; AgrC-I activity described in text (AgrC-I [2]; gfp/fluorescence assay): global inhibitor of all four AgrC receptors; AgrC-IV % Activation (AgrC-IV [1]): 6 ± 3%; AgrC-IV activity (AgrC-IV [1]): global inhibitor of all four AgrC receptors; AgrC-III % Activation (AgrC-III): 13 ± 7% |
| CC(=O)N[C@H]1CSC(=O)[C@H](CC(C)C)NC(=O)[C@H](CC(C)C)NC(=O)[C@H](Cc2ccccc2)NC(=O)[C@H](CC(=O)O)NC1=O [tAIP-III, Ac-(C-D-F-L-L)] (Ac-CDFLL; thioester 1-C) |  |  |  | 8.82 | 7.57 | 7.59 | largely inactive | < 6.70 |  |  |
| CC(=O)N[C@H]1CSC(=O)[C@H](Cc2ccccc2)NC(=O)[C@H](CC(C)C)NC(=O)CCCCCCCNC1=O [n7LF] (Ac-C[Aoc]LF; thioester 1-C) |  |  |  |  |  |  | selective group-III inhibitors |  |  | AgrC-II % Activation (AgrC-II [3]): 43 ± 25%; AgrC-I % Activation (AgrC-I [2]): 54 ± 34%; AgrC-IV % Activation (AgrC-IV [1]): 98 ± 14%; AgrC-III % Activation (AgrC-III): 7 ± 3% |
| CC[C@H](C)[C@H](N)C(=O)N[C@@H](CC(N)=O)C(=O)N[C@H]1CSC(=O)[C@H](CC(C)C)NC(=O)[C@H](C)NC(=O)[C@H](Cc2ccccc2)NC(=O)[C@H](CC(=O)O)NC1=O [AIP-III L6A, I-N-(C-D-F-A-L)] (H-INCDFAL; thioester 3-C) | < 6.70 | < 6.70 | < 6.70 |  |  |  |  |  | < 6.70 |  |
| CC(C)C[C@@H]1NC(=O)[C@H](Cc2ccccc2)NC(=O)[C@H](CC(=O)O)NC(=O)[C@@H](NC(=O)[C@H](CC(N)=O)NC(=O)[C@H](C)N)CSC(=O)[C@H](CC(C)C)NC1=O [AIP-III I1A, A-N-(C-D-F-L-L)] (H-ANCDFLL; thioester 3-C) | 6.71 | 7.75 | 8.11 |  |  |  |  |  | 8.37 | pIC50 (AgrC-IV [5]): 7.90; pIC50 (AgrC-I [6]): 8.34; pIC50 (AgrC-II [4]): 8.89 |
| CC[C@H](C)[C@H](N)C(=O)N[C@@H](CC(N)=O)C(=O)N[C@H]1CSC(=O)[C@H](C)NC(=O)[C@H](CC(C)C)NC(=O)[C@H](Cc2ccccc2)NC(=O)[C@H](CC(=O)O)NC1=O [AIP-III L7A, I-N-(C-D-F-L-A)] (H-INCDFLA; thioester 3-C) | < 6.70 | < 6.70 | < 6.70 |  |  |  | largely inactive |  | < 6.70 |  |
